Measurements as given in ChEMBL document CHEMBL2095176, “GSK Tuberculosis Screening Data”.
≈ marks a conversion by molar mass, not a printed value.

Tested on: Mycobacterium tuberculosis variant bovis BCG
Test: microbe, parasite or virus in culture
Assay type: functional

| Compound | MIC90 [µM] |
| --- | --- |
| Cc1nnc(NCc2cccc(Cl)c2)c2ccccc12 | 1.5 (≈ 0.426 µg/mL) |
| Cc1cc(O)nc(-n2nc(C)cc2NC(=O)c2cc3ccccc3o2)n1 | 6.2 (≈ 2.17 µg/mL) |
| c1ccc(-c2nnc(Sc3ccnc(N4CCN(c5ccncc5)CC4)n3)n2CCCN2CCOCC2)nc1 | 4.6 (≈ 2.51 µg/mL) |
| Cc1ccc2c(OC3CCNCC3)cccc2n1 | 5.9 (≈ 1.43 µg/mL) |
| O=C(Nc1nnc(-c2ccc(F)cc2)o1)c1ccc(C(F)(F)F)cc1 | 6 (≈ 2.11 µg/mL) |
| COc1cc(CN2CCCC(c3cc(C(F)(F)F)n4nc(C)cc4n3)C2)ccc1O (centres undefined) | 6 (≈ 2.52 µg/mL) |
| COc1ccc(Nc2nc(CN3CCN(Cc4cc(=O)n5ccsc5n4)CC3)cs2)cc1 | 6 (≈ 2.81 µg/mL) |
| Fc1cccc(Sc2nccc(N3CCNCC3)n2)c1 | 6 (≈ 1.74 µg/mL) |
| C=CCNCCS(=O)(=O)c1cccc(Nc2ccc(-c3ccsc3)cn2)c1 | 6 (≈ 2.4 µg/mL) |
| Clc1ccc(OCc2noc(CC3CCN(CCOCc4ccccc4)C3)n2)cc1 (centres undefined) | 6 (≈ 2.57 µg/mL) |
| COc1cc(NC(=O)c2sc(-c3ccc(Cl)cc3)cc2/N=C2/CCCCN2C)ccc1OCCN1CCCC1 | 6 (≈ 3.4 µg/mL) |
| COCCN(C)Cc1ccc(-c2cc(-c3c[nH]nc3-c3cccc(C)n3)ccn2)cc1 | 6 (≈ 2.48 µg/mL) |
| O=C(CCC1CCCCC1)Nc1cccc(-c2nnc(-c3ccco3)o2)c1 | 9.2 (≈ 3.36 µg/mL) |
| CCOc1ccc(C=C(C(=O)NCc2ccc(F)cc2)c2nc3ccccc3[nH]2)cc1 | 6.1 (≈ 2.53 µg/mL) |
| Cc1cc(Oc2ccc(-n3ccnc3)cc2)nc(N2CCN[C@@H](Cc3ccccc3)C2)n1 | 6.1 (≈ 2.6 µg/mL) |
| Cc1cc2nc(C)n(CCCOc3ccccc3)c2cc1C | 6.1 (≈ 1.8 µg/mL) |
| Cc1cccc(-c2noc(CNC(=O)c3ccccc3CCc3ccccc3)n2)c1 | 6.1 (≈ 2.42 µg/mL) |
| Cc1ccc(-c2ccnc(-c3cccc(-c4ccccn4)n3)c2)cc1 | 6.1 (≈ 1.97 µg/mL) |
| N=c1n(CCC2CCCCC2)nnn1Cc1ccccc1 | 6.1 (≈ 1.74 µg/mL) |
| Cc1ccc(C(=O)Nc2nnc(-c3ccccc3Cl)o2)cc1 | 6.1 (≈ 1.91 µg/mL) |
| c1cc(COc2ccc(C3=NCCN3)cc2)nc(COc2ccc(C3=NCCN3)cc2)c1 | 6.1 (≈ 2.61 µg/mL) |
| COc1cc(Nc2ccccc2)ccc1NS(=O)(=O)c1c(C)noc1C | 2.9 (≈ 1.08 µg/mL) |

| Compound | MIC90 [µM] |
| --- | --- |
| N=C(N)c1ccc(CCN2CCC(c3nc(COCC(F)(F)F)c(-c4ccc(F)cc4)o3)CC2)cc1.O=C(O)C(F)(F)F.O=C(O)C(F)(F)F | 8.2 |
| Cc1n[nH]c(C)c1S(=O)(=O)Nc1ccc2c[nH]nc2c1 | 6.2 (≈ 1.81 µg/mL) |
| Brc1ccc(-c2noc(C3CCCNC3)n2)cc1 (centres undefined) | 6.2 (≈ 1.91 µg/mL) |
| O=C1NN=C(c2ccc3c(c2)OCO3)N[C@H]1Cc1c[nH]c2ccccc12 | 6.2 (≈ 2.16 µg/mL) |
| Cc1ccc(C2(c3ccc(C)cc3)NC(=O)N(CC(=O)N3CCC(Cc4ccccc4)CC3)C2=O)cc1 | 6.2 (≈ 3.07 µg/mL) |
| O=C(Nc1nc(CN2CCCCC2)cs1)c1ccccc1OCc1ccc(F)cc1 | 6.2 (≈ 2.64 µg/mL) |
| CC(C)c1ccc(NC(=O)c2ccc(C(=O)NC3CCCNC3)cc2)cc1 (centres undefined) | 6.2 (≈ 2.27 µg/mL) |
| Cc1cc(Oc2cccc3[nH]ccc23)nc(N2CCNCC2)n1 | 6.2 (≈ 1.92 µg/mL) |
| Cc1nc2ccccn2c1C(=O)Nc1ccc(C(C)(C)C)cc1 | 4.9 (≈ 1.51 µg/mL) |
| COc1cc2c(cc1OC)C(c1ccccc1)N(C(=O)c1nn(C)c(=O)c3ccccc13)CC2 (centres undefined) | 6.3 (≈ 2.87 µg/mL) |
| FC(F)(F)c1ccccc1C1CCN(Cc2[nH]nc3ccccc23)CC1 | 6.3 (≈ 2.26 µg/mL) |
| O=C(Nc1nc2c(F)cc(F)cc2s1)C1CCCN1S(=O)(=O)c1cccs1 (centres undefined) | 6.3 (≈ 2.71 µg/mL) |
| c1ccc(-c2nnc(Sc3ccnc(N4CCN(c5ccncc5)CC4)n3)n2CCCN2CCOCC2)cc1 | 6.3 (≈ 3.43 µg/mL) |
| NC(=O)c1nnc(Sc2ccnc(N3CCN(c4ccncc4)CC3)n2)n1-c1ccccc1 | 6.3 (≈ 2.9 µg/mL) |
| O=C(Nc1cccc(Cl)c1)NC12CC3CC(CC(C3)C1)C2 | 6.3 (≈ 1.92 µg/mL) |
| O=C(CCc1cccs1)Nc1nc(-c2ccccn2)cs1 | 6.4 (≈ 2.02 µg/mL) |
| CCOc1ncccc1C(=O)Nc1ccccc1Nc1ccccc1 | 6.4 (≈ 2.13 µg/mL) |
| Cc1cc(Cl)cc2nc(N3CCCNCC3)oc12 | 6.4 (≈ 1.7 µg/mL) |
| COc1ccc(-c2nc(CCNC(=O)c3ccc(OC)cc3OC)cs2)cc1 | 6.4 (≈ 2.55 µg/mL) |
| Cc1ccc(Cl)c2sc(N(CCN(C)C)C(=O)CS(=O)(=O)c3ccc(F)cc3)nc12 | 6.4 (≈ 3.01 µg/mL) |
| Cc1noc(C)c1COc1ccc(C(=O)N2CCCCC2c2nc3ccccc3s2)cc1 (centres undefined) | 6.4 (≈ 2.86 µg/mL) |
| Clc1ccc(Nc2nc(-c3ccccn3)cs2)nc1 | 1.2 (≈ 0.347 µg/mL) |
